Species on record: Rattus norvegicus
Experiment: DrugMatrix - Regimen: Daily Repeat
Format: toxicity, organism-based, Sprague-Dawley
Design: regimen Daily Repeat, gender Male, age 6-8 weeks
Conditions: in vivo, po, route oral GAVAGE, vehicle .5 % CMC; for ABSOLUTE BASOPHIL / ABSOLUTE EOSINOPHIL / ABSOLUTE LYMPHOCYTE / ABSOLUTE MONOCYTE / ABSOLUTE SEGMENTED NEUTROPHIL / BASOPHIL / EOSINOPHIL / ERYTHROCYTE COUNT / HEMATOCRIT / HEMOGLOBIN / LEUKOCYTE COUNT / LYMPHOCYTE / MEAN CORPUSCULAR HEMOGLOBIN / MEAN CORPUSCULAR HEMOGLOBIN CONCENTRATION / MEAN CORPUSCULAR VOLUME / MONOCYTE / NEUTROPHIL / NUCLEATED RED BLOOD CELLS / PLATELET COUNT: tissue Blood; for ALANINE AMINOTRANSFERASE / ALBUMIN / ALKALINE PHOSPHATASE / ASPARTATE AMINOTRANSFERASE / BLOOD UREA NITROGEN / CARBON DIOXIDE / CHLORIDE / CHOLESTEROL / CREATINE PHOSPHOKINASE / CREATININE / GLUCOSE / LACTATE DEHYDROGENASE / LIPASE / PHOSPHORUS / POTASSIUM / SODIUM / TOTAL BILIRUBIN / TOTAL PROTEIN / URIC ACID: tissue Plasma
[1] = 0 mg/kg, 72 h, dose level Control, time 3 day
[2] = 0 mg/kg, 120 h, dose level Control, time 5 day
[3] = 50 mg/kg, 72 h, dose level Low, time 3 day

CNC(=C[N+](=O)[O-])NCCSCc1ccc(CN(C)C)o1 [RANITIDINE]
ABSOLUTE BASOPHIL [1]: 0 CELLS/uL | ABSOLUTE EOSINOPHIL [1]: 0 CELLS/uL | ABSOLUTE LYMPHOCYTE [1]: 12269.67 CELLS/uL | ABSOLUTE MONOCYTE [1]: 160.33 CELLS/uL | ABSOLUTE SEGMENTED NEUTROPHIL [1]: 970 CELLS/uL | BASOPHIL [1]: 0% | EOSINOPHIL [1]: 0% | ERYTHROCYTE COUNT [1]: 5.76 x10E6/uL | HEMATOCRIT [1]: 36.57% | HEMOGLOBIN [1]: 14.22 G/DL | LEUKOCYTE COUNT [1]: 13.4 x10E3/uL | LYMPHOCYTE [1]: 91.67% | MEAN CORPUSCULAR HEMOGLOBIN [1]: 24.67 pg | MEAN CORPUSCULAR HEMOGLOBIN CONCENTRATION [1]: 38.85 G/DL | MEAN CORPUSCULAR VOLUME [1]: 63.52 fL | MONOCYTE [1]: 1.17% | NEUTROPHIL [1]: 7.17% | NUCLEATED RED BLOOD CELLS [1]: 0.33 /100WBC | PLATELET COUNT [1]: 1250.83 x10E3/uL | ALANINE AMINOTRANSFERASE [1]: 49.17 u/L | ALBUMIN [1]: 4.33 G/DL | ALKALINE PHOSPHATASE [1]: 378.5 u/L | ASPARTATE AMINOTRANSFERASE [1]: 82.17 u/L | BLOOD UREA NITROGEN [1]: 15 mg/dL | CARBON DIOXIDE [1]: 34.33 mmol/L | CHLORIDE [1]: 99.17 MEQ/L | CHOLESTEROL [1]: 71.17 mg/dL | CREATINE PHOSPHOKINASE [1]: 258.67 u/L | CREATININE [1]: 0.18 mg/dL | GLUCOSE [1]: 142.67 mg/dL | LACTATE DEHYDROGENASE [1]: 154.33 u/L | LIPASE [1]: 9 u/L | PHOSPHORUS [1]: 11.67 mg/dL | POTASSIUM [1]: 7.13 MEQ/L | SODIUM [1]: 142.22 MEQ/L | TOTAL BILIRUBIN [1]: 0.18 mg/dL | TOTAL PROTEIN [1]: 5.77 G/DL | URIC ACID [1]: 1.55 mg/dL | ABSOLUTE BASOPHIL [2]: 0 CELLS/uL | ABSOLUTE EOSINOPHIL [2]: 23.33 CELLS/uL | ABSOLUTE LYMPHOCYTE [2]: 14943.67 CELLS/uL | ABSOLUTE MONOCYTE [2]: 32 CELLS/uL | ABSOLUTE SEGMENTED NEUTROPHIL [2]: 1084.33 CELLS/uL | BASOPHIL [2]: 0% | EOSINOPHIL [2]: 0.17% | ERYTHROCYTE COUNT [2]: 5.71 x10E6/uL | HEMATOCRIT [2]: 35.28% | HEMOGLOBIN [2]: 14.27 G/DL | LEUKOCYTE COUNT [2]: 16.08 x10E3/uL | LYMPHOCYTE [2]: 93% | MEAN CORPUSCULAR HEMOGLOBIN [2]: 25.02 pg | MEAN CORPUSCULAR HEMOGLOBIN CONCENTRATION [2]: 40.43 G/DL | MEAN CORPUSCULAR VOLUME [2]: 61.82 fL | MONOCYTE [2]: 0.17% | NEUTROPHIL [2]: 6.67% | NUCLEATED RED BLOOD CELLS [2]: 0.33 /100WBC | PLATELET COUNT [2]: 1274 x10E3/uL | ALANINE AMINOTRANSFERASE [2]: 54.17 u/L | ALBUMIN [2]: 4.22 G/DL | ALKALINE PHOSPHATASE [2]: 373.17 u/L | ASPARTATE AMINOTRANSFERASE [2]: 81.83 u/L | BLOOD UREA NITROGEN [2]: 16.67 mg/dL | CARBON DIOXIDE [2]: 30.33 mmol/L | CHLORIDE [2]: 99 MEQ/L | CHOLESTEROL [2]: 71 mg/dL | CREATINE PHOSPHOKINASE [2]: 273.5 u/L | CREATININE [2]: 0.22 mg/dL | GLUCOSE [2]: 141.83 mg/dL | LACTATE DEHYDROGENASE [2]: 153.67 u/L | LIPASE [2]: 10.33 u/L | PHOSPHORUS [2]: 11.38 mg/dL | POTASSIUM [2]: 7.08 MEQ/L | SODIUM [2]: 142.75 MEQ/L | TOTAL BILIRUBIN [2]: 0.18 mg/dL | TOTAL PROTEIN [2]: 6.1 G/DL | URIC ACID [2]: 1.67 mg/dL | ABSOLUTE BASOPHIL [3]: 0 CELLS/uL | ABSOLUTE EOSINOPHIL [3]: 82.33 CELLS/uL | ABSOLUTE LYMPHOCYTE [3]: 12453.33 CELLS/uL | ABSOLUTE MONOCYTE [3]: 303 CELLS/uL | ABSOLUTE SEGMENTED NEUTROPHIL [3]: 1061.33 CELLS/uL | BASOPHIL [3]: 0% | EOSINOPHIL [3]: 0.67% | ERYTHROCYTE COUNT [3]: 5.58 x10E6/uL | HEMATOCRIT [3]: 36.1% | HEMOGLOBIN [3]: 14.47 G/DL | LEUKOCYTE COUNT [3]: 13.9 x10E3/uL | LYMPHOCYTE [3]: 89.67% | MEAN CORPUSCULAR HEMOGLOBIN [3]: 25.9 pg | MEAN CORPUSCULAR HEMOGLOBIN CONCENTRATION [3]: 40.1 G/DL | MEAN CORPUSCULAR VOLUME [3]: 64.73 fL | MONOCYTE [3]: 2% | NEUTROPHIL [3]: 7.67% | NUCLEATED RED BLOOD CELLS [3]: 0.33 /100WBC | PLATELET COUNT [3]: 1180.67 x10E3/uL | ALANINE AMINOTRANSFERASE [3]: 50.67 u/L | ALBUMIN [3]: 4.17 G/DL | ALKALINE PHOSPHATASE [3]: 358 u/L | ASPARTATE AMINOTRANSFERASE [3]: 90.67 u/L | BLOOD UREA NITROGEN [3]: 16.33 mg/dL | CARBON DIOXIDE [3]: 27.33 mmol/L | CHLORIDE [3]: 101.33 MEQ/L | CHOLESTEROL [3]: 81.67 mg/dL | CREATINE PHOSPHOKINASE [3]: 304 u/L | CREATININE [3]: 0.2 mg/dL | GLUCOSE [3]: 157.33 mg/dL | LACTATE DEHYDROGENASE [3]: 312 u/L | LIPASE [3]: 10 u/L | PHOSPHORUS [3]: 15.03 mg/dL | POTASSIUM [3]: 7.11 MEQ/L | SODIUM [3]: 147.4 MEQ/L | TOTAL BILIRUBIN [3]: 0.2 mg/dL | TOTAL PROTEIN [3]: 5.83 G/DL | URIC ACID [3]: 2.3 mg/dL
